{"source": "patent US9499476B2", "about": "“Acetamide stereoisomer” (SUNOVION PHARMACEUTICALS INC., priority 2007, dated 2016)", "key": {"[1]": {"molecular_target": "adrenergic β1 receptors (Cavia porcellus, UniProt H0W3H1)", "sequence (H0W3H1 1-470)": "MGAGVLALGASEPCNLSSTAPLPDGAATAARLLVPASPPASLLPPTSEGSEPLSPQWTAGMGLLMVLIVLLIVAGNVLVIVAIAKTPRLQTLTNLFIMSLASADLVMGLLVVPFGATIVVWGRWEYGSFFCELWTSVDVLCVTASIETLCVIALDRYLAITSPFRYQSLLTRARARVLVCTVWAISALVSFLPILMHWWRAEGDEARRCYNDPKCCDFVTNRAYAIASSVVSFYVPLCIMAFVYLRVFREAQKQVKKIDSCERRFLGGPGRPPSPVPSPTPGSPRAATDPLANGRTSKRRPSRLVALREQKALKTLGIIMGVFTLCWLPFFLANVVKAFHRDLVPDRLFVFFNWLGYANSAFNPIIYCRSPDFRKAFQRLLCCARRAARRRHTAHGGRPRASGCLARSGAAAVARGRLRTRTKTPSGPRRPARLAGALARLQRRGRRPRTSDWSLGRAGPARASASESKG", "experiment": "β1 adrenergic functional activity, positive chronotropic effect in isolated right atria", "set-up": "species or system Dunkin Hartley Guinea pigs", "details": "read-out: increase in heart rate, β1 functional assay", "excerpt": "β1 and β2 Adrenergic Activity (Functional)\nThe concentration that gives 50% maximal effect is the EC50."}, "[2]": {"molecular_target": "T1, human recombinant β2 receptors (Homo sapiens, UniProt P07550)", "T1 sequence (P07550 whole entry)": "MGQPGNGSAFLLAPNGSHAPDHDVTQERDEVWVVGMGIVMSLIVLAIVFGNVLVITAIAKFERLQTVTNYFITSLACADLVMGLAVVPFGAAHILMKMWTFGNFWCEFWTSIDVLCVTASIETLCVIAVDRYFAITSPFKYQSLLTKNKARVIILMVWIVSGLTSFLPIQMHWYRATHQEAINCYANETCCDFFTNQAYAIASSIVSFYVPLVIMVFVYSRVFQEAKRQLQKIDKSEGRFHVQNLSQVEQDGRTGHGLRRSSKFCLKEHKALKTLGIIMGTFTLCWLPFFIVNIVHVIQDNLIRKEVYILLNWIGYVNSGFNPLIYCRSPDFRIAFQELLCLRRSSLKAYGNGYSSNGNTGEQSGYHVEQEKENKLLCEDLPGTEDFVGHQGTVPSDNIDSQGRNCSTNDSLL", "experiment": "Intrinsic activity assessment (β2), cAMP production in CHO cells", "format": "cell-based", "details": "relative to procaterol, read-out: intrinsic activity (% response relative to procaterol-induced cAMP increase)"}, "[3]": {"molecular_target": "T1, human recombinant β2 receptors", "experiment": "β2 radioligand binding assay"}, "[4]": {"molecular_target": "T2, adrenergic β2 receptors (Cavia porcellus, UniProt Q8K4Z4)", "T2 construct": "from tissue; host or cells: isolated trachea, Dunkin Hartley guinea pig", "T2 sequence (Q8K4Z4 whole entry)": "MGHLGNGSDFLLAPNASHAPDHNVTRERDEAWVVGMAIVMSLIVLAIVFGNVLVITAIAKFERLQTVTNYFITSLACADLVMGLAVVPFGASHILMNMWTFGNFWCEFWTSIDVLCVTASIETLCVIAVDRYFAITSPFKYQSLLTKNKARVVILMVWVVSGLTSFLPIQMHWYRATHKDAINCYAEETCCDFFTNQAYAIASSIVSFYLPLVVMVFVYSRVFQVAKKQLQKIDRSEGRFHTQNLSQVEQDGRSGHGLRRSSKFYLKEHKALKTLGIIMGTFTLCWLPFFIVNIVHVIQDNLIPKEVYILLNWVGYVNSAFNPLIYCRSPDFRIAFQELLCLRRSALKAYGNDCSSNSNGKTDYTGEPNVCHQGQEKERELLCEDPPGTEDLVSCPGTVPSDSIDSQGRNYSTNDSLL", "experiment": "β2 adrenergic functional activity, relaxation of spontaneous tone of isolated trachea", "set-up": "species or system Dunkin Hartley Guinea pigs"}, "[5]": {"experiment": "Stability in aqueous buffered solutions (HPLC assay)", "format": "physicochemical", "method": "Stability in Aqueous Buffered Solutions\nSolution Preparations: For each test compound, the following solutions are prepared.\n• Solution A is prepared from ˜30 mg of the test compound in 150 mL of 0.005 M citrate buffer, pH 5.0 (˜0.2 mg/mL). • Solution B is prepared as follows: approximately 30 mL aliquot of Solution A is transferred to a separated container and the pH of the solution is adjusted to pH 3.0 with 1 N HCl (˜0.2 mL). • Solution C is prepared as follows: approximately 30 mL aliquot of Solution A is transferred to a separated container and the pH of the solution is adjusted to pH ˜8.0 with 1 N NaOH (˜0.2 mL). • Note: Because the volume of 1 N HCl or 1 N NaOH used for adjusting pH was negligible, the concentration of test compound in Solutions A, B and C were the same.\nStorage Scheme • As soon as the above solutions were prepared, aliquots of each solution were transferred into 11 vials, of which 9 vials are stored at −20° C., and one each is stored at 30° C. and 40° C., respectively. • At each interval listed below, two vials are removed from −20° C. storage, and stored at 30° C. and 40° C., respectively. • The corresponding weeks under the storage condition (30° C. or 40° C.) are shown in the table below.\nOn Week 12, the last vial stored at −20° C. is removed and warmed up to the room temperature, which is the Day 0 Solution.\nSample Analysis: On Week 12, all solutions are assayed by an HPLC method using the Day 0 Solution at pH 5 as a standard solution. The test compounds were assayed by HPLC with UV detection (refer to Table 1 for method conditions)."}, "[6]": {"molecular_target": "T3, human recombinant β1 receptors (Homo sapiens, UniProt P08588)", "T3 construct": "expressed in transfected cells; host or cells: CHO cells", "T3 sequence (P08588 whole entry)": "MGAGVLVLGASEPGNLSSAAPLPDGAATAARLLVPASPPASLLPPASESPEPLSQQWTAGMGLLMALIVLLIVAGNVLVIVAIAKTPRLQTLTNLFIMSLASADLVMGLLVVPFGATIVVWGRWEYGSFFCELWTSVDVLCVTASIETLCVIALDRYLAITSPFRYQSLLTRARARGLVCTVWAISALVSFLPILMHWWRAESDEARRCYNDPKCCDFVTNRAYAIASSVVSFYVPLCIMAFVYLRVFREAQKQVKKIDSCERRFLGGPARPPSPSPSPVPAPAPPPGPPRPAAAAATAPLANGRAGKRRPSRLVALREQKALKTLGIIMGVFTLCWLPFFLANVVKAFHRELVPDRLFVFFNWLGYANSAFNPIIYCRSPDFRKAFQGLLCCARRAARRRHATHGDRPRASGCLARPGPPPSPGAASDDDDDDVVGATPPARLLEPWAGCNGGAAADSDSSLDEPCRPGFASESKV", "experiment": "β1 radioligand binding assay"}}, "note": "pEC50, pKi: −log10 of the molar value. Marks after values point to notes of the source that are not given here."}
{"compound": "CC(=O)Nc1cc([C@H](O)CN[C@H](C)Cc2ccc(O)cc2)ccc1O", "note": "[Example 1, N-[2-hydroxy-5-[(1S)-1-hydroxy-2-[[(1R)-2-(4-hydroxyphenyl)-1-methylethyl]amino]ethyl]phenyl]acetamide]", "values": [{"measurement": "activation at 30 µM", "setting": "[1]", "result": 32, "unit": "%"}, {"measurement": "melting point", "result": "97 to 100", "unit": "°C"}, {"measurement": "Emax", "setting": "[2]", "result": 71, "unit": "%"}, {"measurement": "pKi", "setting": "[3]; displacement of [3H]-CGP-12177, CHO cells, read-out: Ki for the β2 receptor", "result": 5.66}, {"measurement": "β1/β2 binding ratio", "setting": "[3]; ratio of β1 to β2 binding Ki", "result": "> 9"}, {"measurement": "pEC50", "setting": "[4]; isolated guinea pig trachea", "result": 6.92}, {"measurement": "β1/β2 functional ratio", "setting": "[4]; ratio of β1 to β2 functional EC50", "result": "> 250"}, {"measurement": "% of Initial Concentration", "setting": "[5]; pH 3.0, 30° C., 0 wk", "result": 99.46, "unit": "%"}, {"measurement": "% of Initial Concentration", "setting": "[5]; pH 3.0, 30° C., 1 wk", "result": 100.03, "unit": "%"}, {"measurement": "% of Initial Concentration", "setting": "[5]; pH 3.0, 30° C., 2 wk", "result": 99.84, "unit": "%"}, {"measurement": "% of Initial Concentration", "setting": "[5]; pH 3.0, 30° C., 4 wk", "result": 101.41, "unit": "%"}, {"measurement": "% of Initial Concentration", "setting": "[5]; pH 3.0, 30° C., 8 wk", "result": 100.33, "unit": "%"}, {"measurement": "% of Initial Concentration", "setting": "[5]; pH 3.0, 30° C., 12 wk", "result": 100.29, "unit": "%"}, {"measurement": "% of Initial Concentration", "setting": "[5]; pH 3.0, 40° C., 0 wk", "result": 99.46, "unit": "%"}, {"measurement": "% of Initial Concentration", "setting": "[5]; pH 3.0, 40° C., 1 wk", "result": 99.89, "unit": "%"}, {"measurement": "% of Initial Concentration", "setting": "[5]; pH 3.0, 40° C., 2 wk", "result": 100.11, "unit": "%"}, {"measurement": "% of Initial Concentration", "setting": "[5]; pH 3.0, 40° C., 4 wk", "result": 99.54, "unit": "%"}, {"measurement": "% of Initial Concentration", "setting": "[5]; pH 3.0, 40° C., 8 wk", "result": 99.18, "unit": "%"}, {"measurement": "% of Initial Concentration", "setting": "[5]; pH 3.0, 40° C., 12 wk", "result": 97.17, "unit": "%"}, {"measurement": "time found to be very stable in aqueous solution", "setting": "[5]; pH 3 or 5, stored at 30° C.", "result": "at least 12 weeks"}, {"measurement": "% of Initial Concentration", "setting": "[5]; pH 5.0, 30° C., 0 wk", "result": 100.25, "unit": "%"}, {"measurement": "% of Initial Concentration", "setting": "[5]; pH 5.0, 30° C., 1 wk", "result": 101.22, "unit": "%"}, {"measurement": "% of Initial Concentration", "setting": "[5]; pH 5.0, 30° C., 2 wk", "result": 101.07, "unit": "%"}, {"measurement": "% of Initial Concentration", "setting": "[5]; pH 5.0, 30° C., 4 wk, flagged out of trend", "result": "112.52* %"}, {"measurement": "% of Initial Concentration", "setting": "[5]; pH 5.0, 30° C., 8 wk", "result": 107.12, "unit": "%"}, {"measurement": "% of Initial Concentration", "setting": "[5]; pH 5.0, 30° C., 12 wk", "result": 107.75, "unit": "%"}, {"measurement": "% of Initial Concentration", "setting": "[5]; pH 5.0, 40° C., 0 wk", "result": 100.25, "unit": "%"}, {"measurement": "% of Initial Concentration", "setting": "[5]; pH 5.0, 40° C., 1 wk", "result": 102.00, "unit": "%"}, {"measurement": "% of Initial Concentration", "setting": "[5]; pH 5.0, 40° C., 2 wk", "result": 102.73, "unit": "%"}, {"measurement": "% of Initial Concentration", "setting": "[5]; pH 5.0, 40° C., 4 wk", "result": 102.94, "unit": "%"}, {"measurement": "% of Initial Concentration", "setting": "[5]; pH 5.0, 40° C., 8 wk, flagged out of trend", "result": "122.32* %"}, {"measurement": "% of Initial Concentration", "setting": "[5]; pH 5.0, 40° C., 12 wk, flagged out of trend", "result": "112.61* %"}, {"measurement": "% of Initial Concentration", "setting": "[5]; ~pH 8, 30° C., 0 wk", "result": 100.38, "unit": "%"}, {"measurement": "% of Initial Concentration", "setting": "[5]; ~pH 8, 30° C., 1 wk", "result": 99.64, "unit": "%"}, {"measurement": "% of Initial Concentration", "setting": "[5]; ~pH 8, 30° C., 2 wk", "result": 99.60, "unit": "%"}, {"measurement": "% of Initial Concentration", "setting": "[5]; ~pH 8, 30° C., 4 wk", "result": 96.62, "unit": "%"}, {"measurement": "% of Initial Concentration", "setting": "[5]; ~pH 8, 30° C., 8 wk, flagged out of trend", "result": "26.79* %"}, {"measurement": "% of Initial Concentration", "setting": "[5]; ~pH 8, 30° C., 12 wk", "result": 89.93, "unit": "%"}, {"measurement": "% of Initial Concentration", "setting": "[5]; ~pH 8, 40° C., 0 wk", "result": 100.38, "unit": "%"}, {"measurement": "% of Initial Concentration", "setting": "[5]; ~pH 8, 40° C., 1 wk", "result": 97.44, "unit": "%"}, {"measurement": "% of Initial Concentration", "setting": "[5]; ~pH 8, 40° C., 2 wk", "result": 93.75, "unit": "%"}, {"measurement": "% of Initial Concentration", "setting": "[5]; ~pH 8, 40° C., 4 wk", "result": 86.72, "unit": "%"}, {"measurement": "% of Initial Concentration", "setting": "[5]; ~pH 8, 40° C., 8 wk", "result": 72.25, "unit": "%"}, {"measurement": "% of Initial Concentration", "setting": "[5]; ~pH 8, 40° C., 12 wk", "result": 61.36, "unit": "%"}, {"measurement": "inhibition at 20 µM", "setting": "[6]; at a concentration of 20 μM, read-out: inhibition of specific binding, β1 receptor", "result": 30, "unit": "%"}, {"measurement": "pKi", "setting": "[6]; displacement of [125I]-cyanopidolol, CHO cells, read-out: Ki for the β1 receptor", "result": "< 4.70"}]}
